Counter-ions that a name gives are not always drawn.
Target: Glycogen synthase kinase-3 beta (Homo sapiens, UniProt P49841)
Assay: concentration-response blocking of human GSK3B – biochemical, luminescence, cell-free homogeneous, retest, dose response (AID 434954)

Glycogen synthase kinase-3 beta, sequence (P49841 whole entry): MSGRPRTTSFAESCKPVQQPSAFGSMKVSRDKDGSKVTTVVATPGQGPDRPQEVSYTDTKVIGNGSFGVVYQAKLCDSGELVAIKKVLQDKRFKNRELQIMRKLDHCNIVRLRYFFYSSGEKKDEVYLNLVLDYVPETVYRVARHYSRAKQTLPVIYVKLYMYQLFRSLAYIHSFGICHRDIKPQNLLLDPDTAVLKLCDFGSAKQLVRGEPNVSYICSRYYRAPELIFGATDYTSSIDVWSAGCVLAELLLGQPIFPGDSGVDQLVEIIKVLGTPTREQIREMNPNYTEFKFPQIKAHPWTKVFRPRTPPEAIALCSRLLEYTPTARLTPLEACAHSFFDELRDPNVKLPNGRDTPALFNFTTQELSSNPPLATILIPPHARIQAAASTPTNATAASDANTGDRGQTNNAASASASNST

`Cc1ccc2sc(N(CCN(C)C)C(=O)c3ccc(S(=O)(=O)N4CC(C)OC(C)C4)cc3)nc2c1C` (stereo unspecified) [N-[2-(dimethylamino)ethyl]-N-(4,5-dimethyl-1,3-benzothiazol-2-yl)-4-(2,6-dimethylmorpholin-4-yl)sulfonyl-benzamide;hydrochloride] and `COc1ccc2c(c1)-c1c(ssc1=S)C(C)(C)N2S(=O)(=O)c1ccc(C)cc1` [8-methoxy-4,4-dimethyl-5-(4-methylphenyl)sulfonyl-[1,2]dithiolo[3,4-c]quinoline-1-thione] cannot be ordered by EC50: > 300 µM for the first, > 300 µM for the second.

`CSc1nc2c(c(=O)[nH]1)C(c1cccs1)C1C(=O)CCCC1=N2` (stereo unspecified) and `O=C1NC(c2ccncc2)Nc2sc3c(c21)CCCC3` (stereo unspecified) cannot be ordered by EC50: > 300 µM for the first, > 300 µM for the second.

`COc1ccc(Cl)cc1NC(=O)CS(=O)(=O)c1cccc2nsnc12` [2-(2,1,3-benzothiadiazol-4-ylsulfonyl)-N-(5-chloranyl-2-methoxy-phenyl)ethanamide] and `COc1ccc(CCNC(=O)C(C(=O)c2ccccc2)n2cc(Cl)ccc2=O)cc1OC` (stereo unspecified) [2-(5-chloro-2-oxopyridin-1-yl)-N-[2-(3,4-dimethoxyphenyl)ethyl]-3-oxo-3-phenylpropanamide] cannot be ordered by EC50: > 300 µM for the first, > 300 µM for the second.

`Cc1ccccc1CSc1ccc2nnc(-c3ccccn3)n2n1` [SMR000323599] and `Fc1ccc(CSc2ccc3nnc(-c4cccnc4)n3n2)cc1` [MLS000624295] cannot be ordered by EC50: > 300 µM for the first, > 300 µM for the second.

Going from `COc1ccc(Nc2nc3ccccc3s2)cc1` [1,3-benzothiazol-2-yl-(4-methoxyphenyl)amine] to `COc1ccc(C(=O)c2sc(Nc3ccccc3)nc2C)cc1` [MLS001181792], the EC50 falls from > 300 µM to 32.1 µM. The second is the more potent here.

Compared with `COC(=O)c1sccc1NC(=O)c1ccc(Br)s1` [3-[(5-bromothiophene-2-carbonyl)amino]thiophene-2-carboxylic acid methyl ester], `CN1CCN(c2ccccc2NC(=O)c2ccc(Br)o2)CC1` [5-bromanyl-N-[2-(4-methylpiperazin-1-yl)phenyl]furan-2-carboxamide] is lower in EC50: > 300 µM for the first, 19.3 µM for the second.

`COc1cccc(C(=O)Nc2nc(-c3ccncc3)cs2)c1` [3-methoxy-N-(4-pyridin-4-yl-1,3-thiazol-2-yl)benzamide] and `COc1ccc(-c2nn(-c3ccccc3)cc2C#N)cc1` [3-(4-methoxyphenyl)-1-phenyl-4-pyrazolecarbonitrile] cannot be ordered by EC50: > 300 µM for the first, > 300 µM for the second.

Going from `CCOC(=O)c1nnn(-c2nonc2N)c1CSc1ccccc1` [ethyl 1-(4-amino-1,2,5-oxadiazol-3-yl)-5-[(phenylthio)methyl]-1H-1,2,3-triazole-4-carboxylate] to `CCOC(=O)COc1ccc(C(=O)c2ccccc2)c(O)c1` [(4-Benzoyl-3-hydroxy-phenoxy)-acetic acid ethyl ester], the EC50 rises from 14.7 µM to > 300 µM.

First: CCCCn1nc(NC(=O)CCC)c2cc3cc(OC)ccc3nc21 [MLS001214871]
Second: CCCCn1nc(NC(=O)CC)c2cc3cc(OC)ccc3nc21 [N-(1-butyl-6-methoxy-pyrazolo[3,4-b]quinolin-3-yl)propanamide]
The EC50 of the first is higher: > 300 µM for the first, 43.6 µM for the second.

`O=C(CSc1nnc(COc2ccc(Cl)cc2)o1)N1c2ccccc2CCc2ccccc21` [2-[5-(4-Chloro-phenoxymethyl)-[1,3,4]oxadiazol-2-ylsulfanyl]-1-(10,11-dihydro-dibenzo[b,f]azepin-5-yl)-ethanone] and `CCOC(=O)CCCSc1nnc(CCCCCN2C(=O)c3cccc4cccc(c34)C2=O)o1` [SMR000235858] cannot be ordered by EC50: > 300 µM for the first, > 300 µM for the second.

First: CC1=C(C#N)C(=O)NC(=O)C1=CNc1ccc(S(=O)(=O)CCO)cc1 [(5Z)-5-[[[4-(2-hydroxyethylsulfonyl)phenyl]amino]methylidene]-4-methyl-2,6-bis(oxidanylidene)pyridine-3-carbonitrile]
Second: CC1=C(C#N)C(=O)NC(=O)C1=NNc1ccc(S(N)(=O)=O)cc1 [4-[(2Z)-2-(5-cyano-4-methyl-2,6-dioxopyridin-3-ylidene)hydrazinyl]benzenesulfonamide]
The EC50 of the first is higher: > 300 µM for the first, 0.917 µM for the second. The second is the more potent here.

`O=C(Nc1ccccn1)C(=O)Nc1ccccn1` [N,N'-dipyridin-2-ylethanediamide] and `O=C(Nc1cccc(F)c1)Nc1ccccn1` [MLS000111709] cannot be ordered by EC50: > 300 µM for the first, > 300 µM for the second.

Going from `Cc1ccc(CN=Nc2ncnc3nc[nH]c23)cc1` [MLS000419179] to `CCOc1ccccc1Nc1cc(C)nc2ccc(C)cc12` [SMR000473096], the EC50 rises from 30.1 µM to > 300 µM. The first is the more potent here.

`O=C(Nc1ccc2c(c1)OCO2)Nc1ccccn1` [N-1,3-benzodioxol-5-yl-N'-2-pyridinylurea] and `O=C(O)COc1ccc2oc3ccccc3c2c1` [SMR000243853] cannot be ordered by EC50: > 300 µM for the first, > 300 µM for the second.

`COCCn1c(SCC(=O)Nc2ncc(Cl)c(C)c2Cl)nc2ccccc21` [MLS000097567] and `CCCn1nc(NC(=O)c2cccs2)c2cc3ccc(C)cc3nc21` [N-(7-methyl-1-propylpyrazolo[3,4-b]quinolin-3-yl)thiophene-2-carboxamide] cannot be ordered by EC50: > 300 µM for the first, > 300 µM for the second.

`Cc1ccc(C(OCCN(C)C)c2cccc(C(F)(F)F)c2)cc1` (stereo unspecified) [(Z)-but-2-enedioic acid;N,N-dimethyl-2-[(4-methylphenyl)-[3-(trifluoromethyl)phenyl]methoxy]ethanamine] and `CC[n+]1c(/C=C/N(C)c2ccccc2)oc2ccc(F)cc21` cannot be ordered by EC50: > 300 µM for the first, > 300 µM for the second.

`O=C(COc1ccccc1)Nc1ccc2c(c1)C(=O)N(CC1CCCO1)C2=O` (stereo unspecified) [SMR000291909] and `Cc1ccc(OCC(=O)NN=Cc2ccccc2)c([N+](=O)[O-])c1` [2-(4-methyl-2-nitro-phenoxy)-N-[(phenylmethylidene)amino]ethanamide] cannot be ordered by EC50: > 300 µM for the first, > 300 µM for the second.

First: O=c1[nH]nc(SCCS(=O)(=O)c2ccc(F)cc2)n1-c1ccc2c(c1)OCCO2 [SMR000456167]
Second: CCCN(CCC)CCCNc1ccc2nnc(-c3ccc(F)cc3)n2n1 [N-[3-(4-fluorophenyl)-[1,2,4]triazolo[4,3-b]pyridazin-6-yl]-N',N'-dipropyl-propane-1,3-diamine]
The EC50 of the first is 2.1-fold higher: 24.1 µM for the first, 11.3 µM for the second. The second is the more potent here.

First: O=C(c1cccs1)c1coc2ccc(O)c(CN3CCOCC3)c12 [[4-(morpholin-4-ylmethyl)-5-oxidanyl-1-benzofuran-3-yl]-thiophen-2-yl-methanone]
Second: Nc1nc(NCCCN2CCOCC2)nc(Nc2ccc(Cl)cc2)c1[N+](=O)[O-] [N'-(4-Chloro-phenyl)-N-(3-morpholin-4-yl-propyl)-5-nitro-pyrimidine-2,4,6-triamine]
The EC50 of the first is higher: > 300 µM for the first, 1.47 µM for the second.

`c1ccc(-c2nc(-c3ccco3)n3ccccc23)cc1` [MLS000392030] and `CCn1c(=O)c(C(=O)NNC(=O)c2ccccc2)c(O)c2ccccc21` cannot be ordered by EC50: > 300 µM for the first, > 300 µM for the second.

`Oc1ccc2oc3c(c2c1)CCCC3` and `O=C1NC(c2cccnc2)Nc2sc3c(c21)CCCC3` (stereo unspecified) [SMR000114421] cannot be ordered by EC50: > 300 µM for the first, > 300 µM for the second.

`CC1CC(=O)Nc2ccc([N+](=O)[O-])cc2N1C` (stereo unspecified) [SMR000207335] and `Cc1cc(CNC(=O)C(C)n2cc([N+](=O)[O-])cn2)c2ccccc2n1` (stereo unspecified) [SMR000307388] cannot be ordered by EC50: > 300 µM for the first, > 300 µM for the second.

Going from `Nc1nc(NCCOCCO)nc(Nc2cccc(F)c2)c1[N+](=O)[O-]` [2-[2-[[4-azanyl-6-[(3-fluorophenyl)amino]-5-nitro-pyrimidin-2-yl]amino]ethoxy]ethanol] to `Cc1ccc(Nc2nc(N)c([N+](=O)[O-])c(NCCO)n2)cc1` [MLS000333433], the EC50 rises from 10.7 µM to 79.7 µM (7.4-fold).

Compared with `CC(=O)N1CCc2c(sc(NC(=O)Cc3ccc(F)cc3)c2C(N)=O)C1` [6-acetyl-2-[[2-(4-fluorophenyl)-1-oxoethyl]amino]-5,7-dihydro-4H-thieno[2,3-c]pyridine-3-carboxamide], `COc1ccc(CC(=O)N2C[C@H]3C[C@@H](C2)c2cccc(=O)n2C3)cc1` [SMR000646314] is higher in EC50: 47.2 µM for the first, > 300 µM for the second.

`O=C(Nc1ccnn1C1CCN(Cc2cccc(OCCO)c2)CC1)C1CCCC1` [N-[2-[1-[[3-(2-hydroxyethyloxy)phenyl]methyl]piperidin-4-yl]pyrazol-3-yl]cyclopentanecarboxamide] and `CCn1cc(CN2CCC(n3nccc3NC(=O)CCCc3ccccc3)CC2)cn1` [N-[2-[1-[(1-ethylpyrazol-4-yl)methyl]piperidin-4-yl]pyrazol-3-yl]-4-phenyl-butanamide] cannot be ordered by EC50: > 300 µM for the first, > 300 µM for the second.

First: CCN1CCN(C(=O)c2cc3cc4cc(OC)ccc4nc3s2)CC1 [MLS000091315]
Second: CCN1CCN(CCCNC(=O)c2ccc3c(c2)NC(=O)/C(=C\c2cccc(C)c2)S3)CC1 [(2E)-N-[3-(4-ethyl-1-piperazinyl)propyl]-2-[(3-methylphenyl)methylidene]-3-oxo-4H-1,4-benzothiazine-6-carboxamide]
The EC50 of the first is higher: > 300 µM for the first, 16.1 µM for the second. The second is the more potent here.

`Nc1ncnc(NC2CCS(=O)(=O)C2)c1[N+](=O)[O-]` (stereo unspecified) [4-N-(1,1-dioxothiolan-3-yl)-5-nitropyrimidine-4,6-diamine] and `Nc1nc(NCC2CCCO2)nc(Nc2cccc(Cl)c2)c1[N+](=O)[O-]` (stereo unspecified) [SMR000434547] cannot be ordered by EC50: > 300 µM for the first, > 300 µM for the second.

Compared with `N#Cc1c2n(c3c(N)ncnc13)CCCCC2` [4-Amino-6,7,8,9-tetrahydro-5H-1,3,4b-triaza-benzo[a]azulene-10-carbonitrile], `COc1ccc(Nc2nc(N)c([N+](=O)[O-])c(N3CCOCC3)n2)cc1` [SMR000434818] is lower in EC50: > 300 µM for the first, 13.8 µM for the second. The second is the more potent here.

Compared with `COc1ccc(S(=O)(=O)Nc2c(C(=O)O)[nH]c3ccc(OC)cc23)c(OC)c1` [SMR000650153], `COc1ccc(OC)c(Nc2nc(NCCC(C)C)nc(N)c2[N+](=O)[O-])c1` [4-N-(2,5-dimethoxyphenyl)-2-N-(3-methylbutyl)-5-nitropyrimidine-2,4,6-triamine] is higher in EC50: 1.15 µM for the first, > 300 µM for the second. The first is the more potent here.

`OC1(C#CCN2CCOCC2)CCCCC1` and `COc1ccc(Nc2nc(NCCN3CCOCC3)nc(Nc3ccc(OC)cc3)n2)cc1` cannot be ordered by EC50: > 300 µM for the first, > 300 µM for the second.

`O=NCc1ccc(SCc2ccccc2Cl)c([N+](=O)[O-])c1` and `O=C(O)CCn1cc(C=C2C(=O)NC(=S)NC2=O)c(-c2ccccc2)n1` [MLS000707577] cannot be ordered by EC50: > 300 µM for the first, > 300 µM for the second.

Compared with `CCn1nc(NC(=O)CC(C)C)c2cc3cccc(C)c3nc21` [SMR000542878], `CC(C)CC(=O)Nc1ncc([N+](=O)[O-])s1` [MLS001043214] is lower in EC50: > 300 µM for the first, 4.86 µM for the second.

Compared with `CCCC(NC(=O)Cc1c(C)c2c(cc(C)c3c(C)coc32)oc1=O)C(=O)O` (stereo unspecified) [2-[[2-(3,4,9-trimethyl-7-oxofuro[2,3-f]chromen-8-yl)acetyl]amino]pentanoic acid], `COc1ccc(CNC(=O)CN(Cc2ccc(OC)cc2)C(=O)CCC(=O)Nc2nccs2)cc1` [MLS001222948] is lower in EC50: > 300 µM for the first, 19.1 µM for the second. The second is the more potent here.

From BindingDB's records for doi:10.7270/Q2TX3CTT (Broad Institute, 2010)
